Laboratory results taken from article PMC5531494, “Target specificity, in vivo pharmacokinetics, and efficacy of the putative STAT3 inhibitor LY5 in osteosarcoma, Ewing's sarcoma, and rhabdomyosarcoma” (PLoS ONE, 2017).

Columns and labels:
[1] = target: T1, STAT1 (Homo sapiens, UniProt P42224); assay: Cytokine-induced STAT1 phosphorylation in SJSA cells, Western blot; assay type: cell-based; conditions: induced by IFN-γ, IFN-α, or IL-4
T1 construct: endogenous in cells; host or cells: SJSA
Experimental: Cell lysis, protein isolation and immunoblotting were performed as described previously. Twenty micrograms of protein were resolved using 4–12% Bis-Tris polyacrylamide gels. Gels were transferred to PVDF membranes and subjected to blocking and incubation with primary and secondary antibodies. The primary antibodies used in this study included: phospho-STAT3 (Tyr705, Cell Signaling, Boston, MA and Abcam, Cambridge, MA), total STAT3 (Cell Signaling and Abcam), phospho-STAT1 (Cell Signaling), total STAT1 (Cell Signaling), phospho-STAT2 (Cell Signaling), phospho-STAT4 (Cell Signaling), phospho-STAT6 (Cell Signaling), and GAPDH (Cell Signaling). Protein bands were detected using Western Lightning ® Plus Enhanced Chemiluminescence substrate (Perkin Elmer, Waltham, MA) and HyBlot CL ® Autoradiography film (Denville Scientific, Holliston, MA). The cytokines used in this study included: interferon gamma (IFN-γ, Cell Signaling), interferon alpha (IFN-α, Cell Signaling), interleukin-4 (IL-4, Cell Signaling), interleukin-6 (IL-6, Cell Signaling), and oncostatin M (OSM, Cell Signaling).
Fig 1 LY5 inhibits pSTAT3 in sarcoma cell lines. (A) The tumor cell lines RH30, EW8, and RD were treated with increasing concentrations of LY5 for 30 minutes. Cell lysates were collected for Western blotting of p-STAT3, total STAT3, and GAPDH. GAPDH was used as loading control. […]

[2] = system: RH30, ES-3, ES-7, EW-8 cells; assay: Combined STAT3 knockdown-LY5 cell viability assay (Alamar Blue); assay type: cell-based, human; conditions: NC siRNA or STAT3 siRNA 48 hrs, then 0.5 μM or 1 μM LY5 48 hrs
Experimental: Cell lines were transfected with 10 nM of AllStars negative control siRNA or human STAT3-targeting siRNA #7 (5’-[…]-3’) (Qiagen, Germantown, MD) using Lipofectamine RNAiMAX (Life Technologies, Carlsbad, CA) according to the manufacturer’s instructions. After 72 hrs of transfection, cells were harvested and lysed for immunoblotting. For the combined STAT3 knockdown–LY5 cell viability assay, negative control siRNA or STAT3 siRNA #7 was transfected into cell lines. After 48 hrs, cells were treated with 0.5 μM or 1 μM of LY5 for another 48 hrs. Cell viability was then analyzed using Alamar Blue as described above.
Fig 6 Effects of LY5 are not mediated via STAT3 inhibition. (A) Antitumor activity of LY5 against OS-1 PDX model of OS. […] After 72 hours of transfection, cells were harvested and analyzed for total (T) STAT3 and GAPDH protein expression by immunoblotting. […] Cell viability was then determined using Alamar Blue staining. […]
(A) ES cell line ES-3 was transfected with either negative control siRNA (NC siRNA) or STAT3-targeting siRNA #7. After 72 hrs of transfection, cells were harvested and analyzed for total (T) STAT3 and GAPDH protein expression by immunoblotting. […] Cell viability was evaluated using Alamar Blue staining. […]

[3] = system: OS-17-luc cells; assay: Murine model of OS pulmonary metastasis, bioluminescent imaging; assay type: in vivo, mice; conditions: 20 mg/kg LY5 daily oral gavage for 30 days, vs vehicle
Experimental: The ability of LY5 to inhibit pulmonary metastases was evaluated using a murine model of OS pulmonary metastasis. 8-week-old C.B-17 scid -/- female mice (Envigo, Madison, WI) received IV inoculation with 10^6 OS-17-luc cells expressing a luciferase reporter gene. OS-17-luc cells were generated by infecting OS-17 wild type cells with lentivirus containing the firefly luciferase under a CMV promoter (Cellomics Technology, Hallethorpe, MD) and selected with 0.5 ug/mL puromycin (Thermo Fisher Scientific, Waltham, MA). Beginning 24 hrs after inoculation, mice received vehicle (n = 10) or 20 mg/kg LY5 once daily via oral gavage (n = 9, one mouse died within 24 hrs after cell inoculation). LY5 was prepared by diluting a 40 mg/mL solution/slurry with a 50% propylene glycol/1% Tween 20 in water vehicle immediately before administration. Mice were treated with LY5 for 30 days, and bioluminescent imaging (after IP luciferin administration) was performed to determine pulmonary metastatic disease load. To investigate the pharmacodynamics (PD) effects of LY5, pSTAT3 (p-Tyr705, ab76315, Abcam) and total STAT3 (ab119352, Abcam) were evaluated in pulmonary metastatic lesions using IHC in lung samples from mice euthanized 24 hrs after their last dose.
(A-B) IHC staining of lung metastasis from mice treated with LY5. The metastatic tumor sections were stained with pSTAT3 or hematoxylin and eosin. […]

T1 sequence (P42224 whole entry): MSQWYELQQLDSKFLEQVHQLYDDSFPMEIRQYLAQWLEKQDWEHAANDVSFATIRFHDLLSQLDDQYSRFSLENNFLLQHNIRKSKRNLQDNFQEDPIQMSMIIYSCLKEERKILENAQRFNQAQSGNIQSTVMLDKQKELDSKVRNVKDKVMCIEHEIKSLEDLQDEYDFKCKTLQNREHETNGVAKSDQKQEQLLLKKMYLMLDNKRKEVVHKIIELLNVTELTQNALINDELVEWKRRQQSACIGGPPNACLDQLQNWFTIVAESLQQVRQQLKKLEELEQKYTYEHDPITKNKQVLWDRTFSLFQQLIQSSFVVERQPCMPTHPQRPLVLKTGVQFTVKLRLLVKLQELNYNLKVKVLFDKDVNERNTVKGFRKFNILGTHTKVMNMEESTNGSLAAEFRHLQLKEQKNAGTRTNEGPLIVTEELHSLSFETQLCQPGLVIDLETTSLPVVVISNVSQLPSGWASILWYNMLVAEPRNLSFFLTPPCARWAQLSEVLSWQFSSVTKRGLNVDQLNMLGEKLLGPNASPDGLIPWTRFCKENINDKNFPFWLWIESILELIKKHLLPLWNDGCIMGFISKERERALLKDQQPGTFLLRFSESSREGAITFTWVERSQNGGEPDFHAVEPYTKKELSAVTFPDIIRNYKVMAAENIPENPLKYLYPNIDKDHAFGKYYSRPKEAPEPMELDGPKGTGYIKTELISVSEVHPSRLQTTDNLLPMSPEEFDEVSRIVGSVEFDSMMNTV

NS(=O)(=O)c1cccc2c1C(=O)C=C(Nc1cccnc1)C2=O [LY5, 5,8-dioxo-6-(pyridin-3-ylamino)-5,8-dihydronaphthalene-1-sulfonamide]
phosphorylation of STAT1 [1]: did not inhibit
response to LY5 (cell viability) with or without STAT3 depletion [2]: comparable
development of pulmonary metastatic lesions (luciferase expression) [3]: no difference
